# Measurements reported in the supplement of paper PMC10307832.
# Legend:
# Test in all cases: relative viability (nuclei count vs DMSO), 5 days (fraction); higher = more cells survive
# Elesclomol + Vorinostat = compound: CN(NC(=O)CC(=O)NN(C)C(=S)c1ccccc1)C(=S)c1ccccc1 [Elesclomol] + O=C(CCCCCCC(=O)Nc1ccccc1)NO [Vorinostat] (partner 1 µM)
# How it was run: (§1)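 Relative viability was taken as the ratio of nuclei in treated wells to nuclei in vehicle wells. Lung cancer cell lines in 1536-well plates received compounds by pin tool one day after seeding, either one drug alone or a fixed anchor-drug dose plus five library-drug doses (not always all listed) in √10 steps. Nuclei were counted on 4× images after 5 days of treatment, and values are medians of duplicate plates.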
# Elesclomol + Alpelisib = compound: CN(NC(=O)CC(=O)NN(C)C(=S)c1ccccc1)C(=S)c1ccccc1 [Elesclomol] + Cc1nc(NC(=O)N2CCC[C@H]2C(N)=O)sc1-c1ccnc(C(C)(C)C(F)(F)F)c1 [Alpelisib] (partner 2 µM)
# How it was run: as §1
# Elesclomol + Tozasertib = compound: CN(NC(=O)CC(=O)NN(C)C(=S)c1ccccc1)C(=S)c1ccccc1 [Elesclomol] + Cc1cc(Nc2cc(N3CCN(C)CC3)nc(Sc3ccc(NC(=O)C4CC4)cc3)n2)n[nH]1 [Tozasertib] (partner 0.1 µM)
# How it was run: as §1
# Elesclomol + Pictilisib = compound: CN(NC(=O)CC(=O)NN(C)C(=S)c1ccccc1)C(=S)c1ccccc1 [Elesclomol] + CS(=O)(=O)N1CCN(Cc2cc3nc(-c4cccc5[nH]ncc45)nc(N4CCOCC4)c3s2)CC1 [Pictilisib] (partner 1 µM)
# How it was run: as §1
# Elesclomol + Phenformin = compound: CN(NC(=O)CC(=O)NN(C)C(=S)c1ccccc1)C(=S)c1ccccc1 [Elesclomol] + N=C(N)NC(=N)NCCc1ccccc1 [Phenformin] (partner 250 µM)
# How it was run: as §1
Cell Line,relative viability (Elesclomol + Vorinostat; first compound 0.003162 µM),relative viability (Elesclomol + Vorinostat; first compound 0.01 µM),relative viability (Elesclomol + Vorinostat; first compound 0.03162 µM),relative viability (Elesclomol + Vorinostat; first compound 0.1 µM),relative viability (Elesclomol + Alpelisib; first compound 0.003162 µM),relative viability (Elesclomol + Alpelisib; first compound 0.01 µM),relative viability (Elesclomol + Alpelisib; first compound 0.03162 µM),relative viability (Elesclomol + Alpelisib; first compound 0.1 µM),relative viability (Elesclomol + Tozasertib; first compound 0.003162 µM),relative viability (Elesclomol + Tozasertib; first compound 0.01 µM),relative viability (Elesclomol + Tozasertib; first compound 0.03162 µM),relative viability (Elesclomol + Tozasertib; first compound 0.1 µM),relative viability (Elesclomol + Pictilisib; first compound 0.003162 µM),relative viability (Elesclomol + Pictilisib; first compound 0.01 µM),relative viability (Elesclomol + Pictilisib; first compound 0.03162 µM),relative viability (Elesclomol + Pictilisib; first compound 0.1 µM),relative viability (Elesclomol + Phenformin; first compound 0.003162 µM),relative viability (Elesclomol + Phenformin; first compound 0.01 µM),relative viability (Elesclomol + Phenformin; first compound 0.03162 µM),relative viability (Elesclomol + Phenformin; first compound 0.1 µM)
NCI-H358,0.62,0.0764,0.0906,0.0819,0.43,0.163,0.166,0.142,0.0718,0.0649,0.0613,0.0545,0.24,0.196,0.191,0.163,0.305,0.158,0.148,0.166
NCI-H441,0.553,0.729,0.445,0.17,0.701,0.624,0.233,0.0722,0.546,0.794,0.332,0.1,0.424,0.364,0.183,0.0824,0.788,0.838,0.604,0.45
NCI-H460,0.712,0.508,0.275,0.018,0.434,0.0761,0.0128,0.0117,0.497,0.365,0.116,0.0193,0.361,0.291,0.309,0.259,0.439,0.0498,0.0181,0.0123
NCI-H520,0.775,0.662,0.225,0.0994,0.884,0.667,0.563,0.0734,0.442,0.355,0.223,0.181,0.255,0.279,0.22,0.132,0.555,0.535,0.61,0.105
NCI-H596,0.632,0.577,0.485,0.219,0.437,0.472,0.458,0.213,0.925,0.828,0.598,0.178,0.374,0.341,0.346,0.218,0.734,0.693,0.714,0.335
NCI-H647,0.24,0.337,0.133,0.0479,1.12,0.998,0.245,0.017,0.388,0.212,0.0671,0.0175,0.492,0.168,0.204,0.0838,0.546,0.234,0.104,0.0401
NCI-H650,0.539,0.38,0.184,0.132,1.09,0.342,0.271,0.237,0.737,0.351,0.222,0.192,0.875,0.361,0.276,0.256,0.468,0.345,0.315,0.361
NCI-H661,0.768,0.565,0.304,0.26,0.619,0.387,0.2,0.234,0.356,0.3,0.245,0.213,0.356,0.373,0.214,0.212,0.272,0.305,0.25,0.193
NCI-H727,1.14,1.18,1.03,0.641,0.545,0.258,0.117,0.0342,0.661,0.357,0.424,0.249,0.331,0.226,0.158,0.0437,0.547,0.488,0.402,0.177
NCI-H838,0.723,0.706,0.609,0.303,1.13,0.892,0.967,0.706,0.282,0.25,0.18,0.172,0.465,0.413,0.439,0.357,0.536,0.508,0.455,0.152
NCI-H1355,0.617,0.524,0.418,0.213,0.832,0.636,0.466,0.16,0.505,0.538,0.332,0.173,0.549,0.191,0.257,0.178,0.464,0.409,0.391,0.312
NCI-H1395,0.814,0.46,0.245,0.215,0.999,0.571,0.252,0.259,0.832,0.461,0.243,0.276,0.65,0.324,0.292,0.436,0.45,0.364,0.296,0.27
NCI-H1437,0.74,0.411,0.322,0.334,0.886,0.61,0.341,0.283,0.348,0.344,0.252,0.23,0.391,0.321,0.198,0.137,0.292,0.252,0.246,0.217
NCI-H1651,0.557,0.527,0.519,0.434,0.762,0.435,0.235,0.0895,0.6,0.601,0.116,0.108,0.454,0.323,0.177,0.0888,0.321,0.257,0.151,0.1
NCI-H1666,1.05,0.91,0.836,0.714,0.765,0.232,0.277,0.116,0.579,0.457,0.375,0.403,0.359,0.267,0.243,0.195,0.566,0.554,0.494,0.476
NCI-H1734,0.859,0.592,0.207,0.101,0.722,0.588,0.625,0.131,0.276,0.24,0.126,0.0951,0.511,0.328,0.248,0.117,0.369,0.343,0.38,0.191

Cell Line,relative viability (Elesclomol + Vorinostat; first compound 0.003162 µM),relative viability (Elesclomol + Vorinostat; first compound 0.01 µM),relative viability (Elesclomol + Vorinostat; first compound 0.03162 µM),relative viability (Elesclomol + Vorinostat; first compound 0.1 µM),relative viability (Elesclomol + Alpelisib; first compound 0.003162 µM),relative viability (Elesclomol + Alpelisib; first compound 0.01 µM),relative viability (Elesclomol + Alpelisib; first compound 0.03162 µM),relative viability (Elesclomol + Alpelisib; first compound 0.1 µM),relative viability (Elesclomol + Tozasertib; first compound 0.003162 µM),relative viability (Elesclomol + Tozasertib; first compound 0.01 µM),relative viability (Elesclomol + Tozasertib; first compound 0.03162 µM),relative viability (Elesclomol + Tozasertib; first compound 0.1 µM),relative viability (Elesclomol + Pictilisib; first compound 0.003162 µM),relative viability (Elesclomol + Pictilisib; first compound 0.01 µM),relative viability (Elesclomol + Pictilisib; first compound 0.03162 µM),relative viability (Elesclomol + Pictilisib; first compound 0.1 µM),relative viability (Elesclomol + Phenformin; first compound 0.003162 µM),relative viability (Elesclomol + Phenformin; first compound 0.01 µM),relative viability (Elesclomol + Phenformin; first compound 0.03162 µM),relative viability (Elesclomol + Phenformin; first compound 0.1 µM)
NCI-H1755,0.742,0.637,0.787,0.364,0.931,0.9,0.909,0.24,0.625,0.47,0.421,0.288,0.481,0.225,0.409,0.202,0.624,0.466,0.605,0.57
NCI-H1793,0.808,0.623,0.613,0.117,0.759,0.654,0.768,0.164,0.356,0.286,0.348,0.132,0.273,0.307,0.335,0.178,0.302,0.35,0.335,0.247
NCI-H1915,0.517,0.324,0.573,0.205,1.05,–,1.05,0.879,0.412,–,0.397,0.258,0.924,–,0.916,0.821,0.37,–,0.38,0.371
NCI-H1944,0.652,0.578,0.459,0.166,0.887,0.736,0.881,0.825,0.236,0.251,0.23,0.139,0.381,0.29,0.318,0.328,0.216,0.169,0.212,0.201
NCI-H1975,0.765,0.648,0.183,0.12,0.646,0.468,0.229,0.11,0.733,0.517,0.118,0.0791,0.306,0.179,0.2,0.123,0.43,0.329,0.388,0.281
NCI-H1993,0.897,0.817,0.469,0.288,0.755,0.662,0.666,0.52,0.568,0.491,0.452,0.401,0.798,0.909,0.807,0.603,0.512,0.538,0.517,0.53
NCI-H2009,0.679,0.279,0.162,0.0886,1.21,0.885,0.458,0.14,0.684,0.219,0.112,0.0954,0.797,0.225,0.122,0.0966,0.344,0.239,0.243,0.107
NCI-H2023,0.418,0.0842,0.0465,0.0461,0.604,0.236,0.269,0.074,0.282,0.192,0.0576,0.0475,0.219,0.148,0.0682,0.0514,0.349,0.217,0.145,0.0642
NCI-H2085,0.835,0.783,0.451,0.308,0.895,0.621,0.555,0.286,0.76,0.703,0.529,0.457,0.419,0.444,0.433,0.322,0.676,0.588,0.512,0.305
NCI-H2087,0.528,0.448,0.431,0.313,1.2,0.701,0.526,0.566,0.18,0.187,0.158,0.0781,0.879,0.559,0.491,0.495,0.376,0.343,0.284,0.181
NCI-H2126,0.852,0.642,0.745,0.577,0.719,0.713,0.717,0.739,0.792,0.751,0.359,0.337,0.501,0.462,0.494,0.495,0.562,0.526,0.538,0.46
NCI-H2170,0.808,0.683,0.777,0.408,0.808,0.722,0.708,0.403,0.715,0.641,0.703,0.491,0.328,0.266,0.298,0.193,0.39,0.402,0.376,0.341
NCI-H2228,0.628,0.177,0.125,0.0717,0.569,0.5,0.198,0.0389,0.242,0.257,0.166,0.051,0.395,0.352,0.132,0.0486,0.294,0.188,0.159,0.0554
NCI-H2347,0.572,0.527,0.471,0.303,1.04,0.928,0.955,0.513,0.683,0.424,0.264,0.248,0.543,0.689,0.629,0.396,0.426,0.231,0.294,0.281
NCI-H2405,0.933,0.415,0.314,0.276,0.783,0.312,0.223,0.224,0.691,0.47,0.292,0.315,0.472,0.249,0.228,0.236,0.39,0.335,0.335,0.366
NCI-H3122,0.652,1.02,0.881,0.111,0.706,0.759,0.758,0.159,0.329,0.118,0.0927,0.0898,0.567,0.594,0.594,0.304,0.325,0.274,0.261,0.219
